Assay results as given in patent US20250185657A1, “PEST CONTROLLING AGENT” (priority 2022, published 2025).

Experiments:
Type in all cases: in vivo
[1] = tested on: Tobacco Cutworm (Spodoptera litura); assay: Tobacco cutworm control test (leaf piece dipping treatment); conditions: 120 h, cabbage leaf piece dipped, second instar larvae, five days after the treatment, 25° C., read-out: insect mortality rate
Description: (§1) The insect mortality rate and the feeding damage prevention effect shown in the Biological Test Examples were calculated based on the following expression.
Biological Test Example 5: Tobacco Cutworm (Spodoptera litura) Control Test (Leaf Piece Dipping Treatment)
(§2) A cabbage leaf was cut into a piece having a diameter of 5.0 cm, and this cabbage leaf piece was immersed in 20 mL of a diluted solution of the test compound diluted to 200 ppm, and air-dried. After air-drying, the cabbage leaf piece was placed in a plastic cup, 5 second instar tobacco cutworm larvae were released thereinto, the cup was covered with a lid, and the larvae were reared in a constant temperature chamber at 25° C.

[2] = tested on: Diamondback Moth (Plutella xylostella); assay: Diamondback moth control test (leaf piece dipping treatment); conditions: 120 h, cabbage leaf piece dipped, third instar, five days after the treatment, 25° C., read-out: insect mortality rate
Description: as §1
Biological Test Example 3: Diamondback Moth (Plutella xylostella) Control Test (Leaf Piece Dipping Treatment)
as §2, with “10 third” for “5 second”, “diamondback moth nymphs” for “tobacco cutworm larvae”, “nymphs” for “larvae”

[3] = tested on: Cotton Aphid (Aphis gossypii); assay: Cotton aphid control test (leaf piece application treatment); conditions: 120 h, sprayed on cucumber leaf piece, nymphs, five days after the treatment, 25° C., read-out: insect mortality rate
Description: as §1
Biological Test Example 1: Cotton Aphid (Aphis gossypii) Control Test (Leaf Piece Application Treatment)
A cucumber leaf was cut into a piece having a diameter of 3.5 cm and placed on absorbent cotton moistened with water. Two adult cotton aphids were released thereon, and allowed to lay nymphs for 24 hours, and then the adults were removed. 2 mL of a diluted solution of the test compound diluted to 200 ppm was applied onto the resulting cucumber leaf by using an spray tower. The cucumber leaf was air-dried and then placed in a plastic cup together with the absorbent cotton, the cup was covered with a lid, and the nymphs were reared in a constant temperature chamber at 25° C.

| Compound | mortality at 200 ppm [1] [%] | mortality at 200 ppm [2] [%] | mortality at 200 ppm [3] [%] |
| --- | --- | --- | --- |
| CCS(=O)(=O)c1cc(-c2ccc(F)cc2)cnc1-c1noc(=S)n1-c1ccc(C(F)(F)F)cn1 [Compound 18, 3-(3-(ethylsulfonyl)-5-(4-fluorophenyl)pyridin-2-yl)-4-(5-(trifluoromethyl)pyridin-2-yl)-1,2,4-oxadiazol-5(4H)-thione] | ≥ 80 | ≥ 80 | ≥ 80 |
| CCS(=O)(=O)c1cc(-c2ccc(F)cc2)cnc1C1=NC(=COC)C(=O)N1c1ccc(C(F)(F)F)cn1 [Compound 34] |  | ≥ 80 |  |
| CN(C)S(=O)(=O)c1cc(-c2ccc(OC(F)(F)F)cc2)cnc1-c1noc(=O)n1-c1ccc(C(F)(F)F)cn1 [Compound 195, N,N-dimethyl-2-(5-oxo-4-(5-(trifluoromethyl)pyridin-2-yl)-4,5-dihydro-1,2,4-oxadiazol-3-yl)-5-(4-(trifluoromethoxy)phenyl)pyridine-3-sulfonamide] | ≥ 80 | ≥ 80 |  |
| CCS(=O)(=O)c1cc(-c2ccc(OC(F)(F)F)cc2)cnc1-c1noc(=O)n1-c1ccc(C(F)(F)F)cn1 [Compound 4, 3-(3-(ethylsulfonyl)-5-(4-(trifluoromethoxy)phenyl)pyridin-2-yl)-4-(5-(trifluoromethyl)pyridin-2-yl)-1,2,4-oxadiazol-5(4H)-one] | ≥ 80 | ≥ 80 | ≥ 80 |
| CCS(=O)(=O)c1cc(-c2ccc(F)cc2)cnc1-c1noc(=O)n1-c1ccc(C(F)(F)F)cn1 [Compound 2, 3-(3-(ethylsulfonyl)-5-(4-fluorophenyl)pyridin-2-yl)-4-(5-(trifluoromethyl)pyridin-2-yl)-1,2,4-oxadiazol-5(4H)-one] | ≥ 80 | ≥ 80 | ≥ 80 |
| CCS(=O)(=O)c1cc(-c2ccc(F)cc2)cnc1C1=NOCCN1c1ccc(C(F)(F)F)cn1 [Compound 29, 3-(3-(ethylsulfonyl)-5-(4-fluorophenyl)pyridin-2-yl)-4-(5-(trifluoromethyl)pyridin-2-yl)-5,6-dihydro-4H-1,2,4-oxadiazine] | ≥ 80 | ≥ 80 | ≥ 80 |
| CCS(=O)(=O)c1cc(-c2ccc(F)cc2)cnc1C1=NOCN1c1ccc(C(F)(F)F)cn1 [Compound 27, 3-(3-(ethylsulfonyl)-5-(4-fluorophenyl)pyridin-2-yl)-4-(5-(trifluoromethyl)pyridin-2-yl)-4,5-dihydro-1,2,4-oxadiazole] | ≥ 80 | ≥ 80 |  |
